This is an account of results in US11890316B2, “Oral octreotide therapy and contraceptive methods” (Amryt Endo, Inc., priority 2020, dated 2024).

A short description of data set [1]: clinical. The conditions noted are these: for Cmax, least squares geometric mean, Test / Cmax, least squares geometric mean, Reference: co-administered with HCTZ and metformin, in ng/mL; for effect of oral octreotide on the exposure to the probe drug (Cmax and AUC0-5): single 40 mg oral octreotide acetate vs placebo, first 5 h after dosing. An excerpt: This was a single-center, randomized, single-blind, placebo-controlled, crossover design study in healthy male and female subjects.
Eligible subjects were randomized in a 1:1 ratio to one of two treatment sequences of test conditions (i.e., Group 1 or Group 2); females were studied under 4 test conditions (A to D), whereas males were studied under 2 test conditions only (A and B), as shown in Table 1.
The study comprised a screening period, 4 treatment (dosing) periods for females and 2 treatment periods for males, and a follow-up period (approximately 7-10 days following the last dosing). There was a washout period of at least 14 days between dosing events.
The effect of […] on the absorption of estradiol was assessed by comparing Test Conditions C and D in up to 14 females. Blood sampling was conducted over the first 5 hours after administration.
Confidence intervals (Cis) (90%) were constructed for the geometric mean rations (GMRs) (probe drug+oral octreotide to probe drug alone) of the 2 parameters using the natural log-transformed data and the 2 one-sided t-tests procedure. The GMRs and CIs were exponentiated back to the original scale. The effect of concurrent administration of oral octreotide was assessed from the GMRs and 90% Cis. The discrete parameter Tmax was compared among treatments using non-parametric analyses.

Data set [2] can be described thus: clinical. The conditions noted are these: female, human, in vivo, po.
[3] abbreviates: both, human, in vivo, po, 100 mg.
Where [4] appears, read: R-warfarin with oral octreotide vs R-warfarin with placebo.
The mark [5] stands for this setting: S-warfarin with oral octreotide vs S-warfarin with placebo.
Setting [6] is: both, human, in vivo, po, 850 mg.

As usually defined, the AUC(0-t) is exposure summed from dosing to a finite time, without extrapolation to infinity. Low values mean low exposure, high ones high exposure. For orientation: Cmax means the highest concentration seen after dosing. On to `NS(=O)(=O)c1cc2c(cc1Cl)NCNS2(=O)=O` [Hydrochlorothiazide, hydrochlorothiazide], for which, in data set [1] (both, human, in vivo, po), the “AUC(0-5) Geometric Mean Ratio, Estimate” value is 81.82%; the “Cmax Geometric Mean Ratio, Estimate” value is listed as 91.21%; the Tmax is 4 h. In data set [1] (setting [3]), the AUC(0-t) amounted to 2030 ± 392 ng·h/mL and the Tmax amounted to 2.75 h. In data set [1] (both, human, in vivo, po, 100 mg, Cmax), the Cmax was 655 ± 128 ng/mL.

Regarding `CC(=O)C[C@H](c1ccccc1)c1c(O)c2ccccc2oc1=O` [R-Warfarin, R-warfarin], the Cmax in data set [1] (R-warfarin in plasma, single 7.5 mg oral racemic warfarin, with single 40 mg (2x20 mg) oral octreotide acetate, healthy volunteers, mean ± SD) is given as 508 ± 97.0 ng/mL; in data set [1] (R-warfarin in plasma, single 7.5 mg oral racemic warfarin, without oral octreotide (placebo), healthy volunteers, mean ± SD), 498 ± 82.0 ng/mL. The “Cmax, least squares geometric mean, Test” value in data set [1] (R-warfarin with oral octreotide 40 mg, 7.5 mg racemic warfarin) is given as 500.10. Moreover, the “AUC(0-5) Geometric Mean Ratio, Estimate” value in data set [1] (setting [4]) is given as 105.17%. The “Cmax Geometric Mean Ratio, Estimate” value in data set [1] (setting [4]) was 101.84%. For the same compound, in data set [1] (R-warfarin with placebo, 7.5 mg racemic warfarin), the “Cmax, least squares geometric mean, Reference” value is 491.04. In addition, the “AUC(0-5)” value in data set [1] (R-warfarin, 7.5 mg racemic warfarin, with 40 mg oral octreotide acetate, mean ± SD) stood at 2012 ± 348 ng·h/mL; in data set [1] (R-warfarin, 7.5 mg racemic warfarin, without oral octreotide (placebo), mean ± SD) it was 1907 ± 280 ng·h/mL. In addition, the Tmax was 2.00 (18) h in data set [1] (R-warfarin, 7.5 mg racemic warfarin, with 40 mg oral octreotide acetate, median) and 1.00 (18) h in data set [1] (R-warfarin, 7.5 mg racemic warfarin, without oral octreotide (placebo), median). In addition, in data set [1] (healthy volunteers), the “effect of oral octreotide on the exposure to the probe drug (Cmax and AUC0-5)” value is on record as “no significant effect”.

Turning to `C#C[C@]1(O)CC[C@H]2[C@@H]3CCc4cc(O)ccc4[C@H]3CC[C@@]21C` [Ethinyl Estradiol, ethinyl estradiol], in data set [2], the “Cmax Geometric Mean Ratio, Estimate” value is recorded as 92.05% and the Tmax was 2.75 h. Further, in data set [2] (0.06 mg), the AUC(0-t) was found to be 370 ± 80.2 pg·h/mL and the Tmax was found to be 1.79 h. In data set [2] (0.06 mg, Cmax), this compound yielded a Cmax of 0.113 ± 0.0287 ng/mL.

Consider `CC(=O)C[C@@H](c1ccccc1)c1c(O)c2ccccc2oc1=O` [S-Warfarin, S-warfarin], for which the Cmax in data set [1] (S-warfarin in plasma, single 7.5 mg oral racemic warfarin, with single 40 mg (2x20 mg) oral octreotide acetate, healthy volunteers, mean ± SD) came to 492 ± 114.2 ng/mL; in data set [1] (S-warfarin in plasma, single 7.5 mg oral racemic warfarin, without oral octreotide (placebo), mean ± SD) it was 503 ± 91.2 ng/mL. For the same compound, the “Cmax, least squares geometric mean, Test” value in data set [1] (S-warfarin with oral octreotide 40 mg, 7.5 mg racemic warfarin) is on record as 480.09. Further, the “AUC(0-5) Geometric Mean Ratio, Estimate” value in data set [1] (setting [5]) is 102.38%. Further, the “Cmax Geometric Mean Ratio, Estimate” value in data set [1] (setting [5]) is reported as 97.06%. The “Cmax, least squares geometric mean, Reference” value in data set [1] (S-warfarin with placebo, 7.5 mg racemic warfarin) is 494.64. Moreover, the “AUC(0-5)” value in data set [1] (S-warfarin, 7.5 mg racemic warfarin, with 40 mg oral octreotide acetate, mean ± SD) was determined as 1894 ± 330 ng·h/mL; in data set [1] (S-warfarin, 7.5 mg racemic warfarin, without oral octreotide (placebo), mean ± SD), 1846 ± 286 ng·h/mL. Besides, the Tmax in data set [1] (S-warfarin, 7.5 mg racemic warfarin, with 40 mg oral octreotide acetate, median) is on record as 1.50 (18) h; in data set [1] (S-warfarin, 7.5 mg racemic warfarin, without oral octreotide (placebo), median), 1.00 (18) h. The “effect of oral octreotide on the exposure to the probe drug (Cmax and AUC0-5)” value in data set [1] (healthy volunteers) was “no significant effect”.

For `CN(C)C(=N)N=C(N)N` [Metformin, metformin], in data set [1] (setting [6]), the AUC(0-t) is 5500 ± 1280 ng·h/mL and the Cmax is given as 1450 ± 398 ng/mL.
